Calls of active or inactive are those of the source. No cut-off for these calls is given here.
Experiments:
[1] = test system: A549; test: Induction of mitochondrial membrane potential loss in human A549 cells by measuring red fluorescence at 20 nM incubated for 16 hrs by JC-1 staining based flow cytometry analysis (reference value: 99.3 %); assay type: functional
[2] = test system: A549; test: Induction of mitochondrial membrane potential loss in human A549 cells by measuring green fluorescence at 10 nM incubated for 16 hrs by JC-1 staining based flow cytometry analysis (reference value: 0.7 %); assay type: functional
[3] = Tmax in CD-1 mouse assessed as Tmax of metabolite at 10 mg/kg,ip measured upto 24 hrs by HPLC-MS/MS analysis; assay type: ADME, organism-based; conditions: in vivo
[4] = test system: A549; test: Induction of apoptosis in human A549 cells assessed as necrotic cells at 5 nM incubated for 24 hrs by Annexin V-FITC/PI staining based flow cytometry (reference value: 0.67 %); assay type: functional
[5] = Half life in CD-1 mouse at 10 mg/kg,ip measured upto 24 hrs by HPLC-MS/MS analysis; assay type: ADME, organism-based; conditions: in vivo
[6] = molecular target: T1, JAK2-STAT3 (Homo sapiens) (UniProt O60674+P40763); test: Inhibition of JAK2/STAT3 signalling pathway in human A549 cells assessed as effect on JAK2 protein level at 5 to 20 uM incubated for 24 hrs by Western blotting analysis; assay type: cell-based; conditions: dose 5-20 µM
[7] = test system: A549; test: Induction of apoptosis in human A549 cells assessed as increase in mitochondrial ROS level at 5 to 20 nM incubated for 16 hrs by MitoSOX red dye based fluorescence microscopy; assay type: functional, cell-based; conditions: dose 5-20 nM
[8] = test system: HT-29; test: Antiproliferative activity against human HT-29 cells assessed as cell growth inhibition incubated for 48 hrs by MTT assay; assay type: functional, cell-based; conditions: HT-29, 48 h
[9] = molecular target: T1, JAK2-STAT3 (Homo sapiens); test: Inhibition of JAK2/STAT3 signalling pathway in human A549 cells assessed as effect on STAT3 protein level at 5 to 20 uM incubated for 24 hrs by Western blotting analysis; assay type: cell-based; conditions: dose 5-20 µM
[10] = test system: A549; test: Induction of apoptosis in human A549 cells assessed as reduction of mitochondrial membrane potential incubated for 16 hrs by JC-1 staining based flow cytometry analysis; assay type: functional, cell-based
[11] = test system: A549; test: Induction of apoptosis in human A549 cells at 5 uM incubated for 24 hrs by Annexin V-FITC/PI staining based flow cytometry; assay type: functional
[12] = test system: A549; test: Induction of apoptosis in human A549 cells assessed as reduction of mitochondrial membrane potential at 5 to 20 nM incubated for 16 hrs by JC-1 staining based fluorescence microscopy; assay type: functional, cell-based; conditions: dose 5-20 nM
[13] = Cmax in CD-1 mouse at 10 mg/kg,ip measured upto 24 hrs by HPLC-MS/MS analysis; assay type: ADME, organism-based; design: time < 24 hrs, dose 10 mg/kg, route ip; conditions: in vivo
[14] = Cytotoxicity against human L02 cells assessed as cell growth inhibition incubated for 48 hrs by MTT assay; assay type: toxicity, cell-based
[15] = molecular target: Tubulin beta (Homo sapiens) (UniProt P68371+Q9H4B7+Q13509+P04350+Q3ZCM7+P07437+Q13885+Q9BVA1+Q9BUF5+A6NNZ2); test: Binding affinity to beta-tubulin colchicine binding site in human A549 cells assessed as inhibition of EBI-beta-tubulin adduct band formation at 1 to 25 uM preincubated for 2 hrs followed by EBI addition measured after 1.5 hrs by EBI competition based Western blotting analysis; assay type: cell-based; conditions: dose 1-25 µM
[16] = Half life in CD-1 mouse at 1 mg/kg,iv measured upto 24 hrs by HPLC-MS/MS analysis; assay type: ADME, organism-based; conditions: in vivo
[17] = test system: A549; test: Induction of mitochondrial membrane potential loss in human A549 cells by measuring green fluorescence at 5 nM incubated for 16 hrs by JC-1 staining based flow cytometry analysis (reference value: 0.7 %); assay type: functional
[18] = MRT (0 to t) in CD-1 mouse at 10 mg/kg,ip measured upto 24 hrs by HPLC-MS/MS analysis; assay type: ADME, organism-based; conditions: in vivo
[19] = Cmax in CD-1 mouse at 1 mg/kg,iv measured upto 24 hrs by HPLC-MS/MS analysis; assay type: ADME, organism-based; design: dose 1 mg/kg, time < 24 hrs, route iv; conditions: in vivo
[20] = test system: A549; test: Antiproliferative activity against human A549 cells assessed as cell growth inhibition incubated for 48 hrs by MTT assay; assay type: functional, cell-based; conditions: A549, 48 h
[21] = test system: A549; test: Antitumor activity against human A549 cells xenografted in Balb/c mouse assessed as reduction in tumor weight at 50 mg/kg,ip administration measured after 31 days; assay type: functional; design: scale not given: the % may be the effect or the level left; conditions: time 31 day
[22] = Toxicity in Balb/c mouse xenografted with human A549 cells assessed as change in body weight at 50 mg/kg,ip administration measured after 31 days; assay type: organism-based; conditions: in vivo, 744 h, time 31 day
[23] = test system: A549; test: Induction of apoptosis in human A549 cells assessed as necrotic cells at 10 nM incubated for 24 hrs by Annexin V-FITC/PI staining based flow cytometry (reference value: 0.67 %); assay type: functional
[24] = test system: A549; test: Induction of apoptosis in human A549 cells assessed as increase in intracellular ROS level at 5 to 20 nM incubated for 16 hrs by DCFH-DA staining based fluorescence microscopy; assay type: functional, cell-based; conditions: dose 5-20 nM
[25] = test system: CWR22R; test: Cytotoxicity against human 22Rv1 cells assessed as cell growth inhibition incubated for 48 hrs by MTT assay; assay type: functional, cell-based; conditions: 22Rv1, 48 h

## COc1cc(-c2nccc3nc(Nc4cccc5[nH]ccc45)nn23)cc(OC)c1OC
[1]
  Activity: 55.9%
[2]
  Activity: 15.4%
[3]
  Tmax: 1 h
[4]
  Activity: 0.21%
[5]
  half-life: 5.5 h
[6]
  inhibition: inactive
[7]
  Activity: Active
[8]
  IC50: 27 nM
[9]
  inhibition: inactive
[10]
  Activity: Dose-Dependent Effect
[11]
  Activity: 8.9%
[12]
  Activity: Active
[13]
  Cmax: 158 ng/mL
[14]
  IC50 at 48 h: 339 nM
[15]
  Activity: Active
[16]
  half-life: 6 h
[17]
  Activity: 10.9%
[18]
  MRT last at 24 h: 4.6 h
[19]
  Cmax: 117 ng/mL
[20]
  IC50: 8 nM
[21]
  Activity: 70%
[22]
  Activity: Non-Toxic
[23]
  Activity: 2.6%
[24]
  Activity: Active
[25]
  IC50: 12.4 nM
